Assay results from PubChem BioAssay AID248 (DTP/NCI, 2004).
Toxic doses and inconclusive results are not listed. Rule as the data show it: active = T/C of 150% or more; inactive = T/C below 125%.

Tested on: L1210 leukemia ip in BDF1 mice, survival T/C
Experiment: NCI In Vivo Anticancer Drug Screen. Data for tumor model L1210 Leukemia (intraperitoneal) in B6D2F1 (BDF1) mice
Settings: endpoint: mean survival time, higher = longer survival
Outline: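 Transplantable tumor model; survival measured in treated vs vehicle control mice. Value = treated/control.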

[1] = dose: 100.0 mg/kg/injection, schedule: Q01DX001 (ip), vehicle: Klucel (hydroxypropylcellulose) (HPC)
[2] = dose: 200.0 mg/kg/injection, schedule: Q01DX001 (ip), vehicle: Klucel (hydroxypropylcellulose) (HPC)
[3] = dose: 100.0 mg/kg/injection, schedule: Q01DX001 (ip), vehicle: saline
[4] = dose: 200.0 mg/kg/injection, schedule: Q01DX001 (ip), vehicle: saline
[5] = dose: 400.0 mg/kg/injection, schedule: Q01DX001 (ip), vehicle: saline
[6] = dose: 100.0 mg/kg/injection, schedule: Q01DX009 (ip), vehicle: saline with Tween-80
[7] = dose: 200.0 mg/kg/injection, schedule: Q01DX009 (ip), vehicle: saline with Tween-80
[8] = dose: 400.0 mg/kg/injection, schedule: Q01DX009 (ip), vehicle: saline with Tween-80
[9] = dose: 100.0 mg/kg/injection, schedule: Q04DX002 (ip), vehicle: saline
[10] = dose: 200.0 mg/kg/injection, schedule: Q04DX002 (ip), vehicle: saline
[11] = dose: 400.0 mg/kg/injection, schedule: Q04DX002 (ip), vehicle: saline
[12] = dose: 100.0 mg/kg/injection, schedule: Q04DX003 (ip), vehicle: Klucel (hydroxypropylcellulose) (HPC)
[13] = dose: 200.0 mg/kg/injection, schedule: Q01DX009 (ip), vehicle: Klucel (hydroxypropylcellulose) (HPC)
[14] = dose: 200.0 mg/kg/injection, schedule: Q04DX003 (ip), vehicle: Klucel (hydroxypropylcellulose) (HPC)
[15] = dose: 400.0 mg/kg/injection, schedule: Q04DX003 (ip), vehicle: Klucel (hydroxypropylcellulose) (HPC)

Measured: T/C

O=C(COc1ccc(Cl)c(Cl)c1)Nc1ccc[n+](Cc2cccc([N+](=O)[O-])c2)c1
inactive: [1] 95 % of control | [2] 94 % of control | dose: 400.0 mg/kg/injection, schedule: Q01DX001 (ip), vehicle: Klucel (hydroxypropylcellulose) (HPC) 94 % of control

Cc1c2c(ccc3ccccc32)cc2cccc[n+]12
inactive: dose: 2.0 mg/kg/injection, schedule: Q01DX Z (ip), vehicle: saline 101 % of control | dose: 4.0 mg/kg/injection, schedule: Q01DX Z (ip), vehicle: saline 116 % of control

O=S(=O)(c1ccc(N=NN2CCOCC2)cc1)N(CCCl)CCCl
inactive: dose: 100.0 mg/kg/injection, schedule: Q04DX002 (ip), vehicle: saline with Tween-80 108 % of control | dose: 200.0 mg/kg/injection, schedule: Q04DX002 (ip), vehicle: saline with Tween-80 115 % of control | dose: 400.0 mg/kg/injection, schedule: Q04DX002 (ip), vehicle: saline with Tween-80 115 % of control

O=C1NC(c2ccccc2)(c2ccccc2)C(=O)N1CCO
inactive: [3] 100 % of control | dose: 100.0 mg/kg/injection, schedule: Q01DX009 (ip), vehicle: saline 96 % of control | dose: 100.0 mg/kg/injection, schedule: Q04DX003 (ip), vehicle: saline 107 % of control | [4] 92 % of control | dose: 200.0 mg/kg/injection, schedule: Q01DX009 (ip), vehicle: saline 96 % of control | dose: 200.0 mg/kg/injection, schedule: Q04DX003 (ip), vehicle: saline 104 % of control | [5] 102 % of control | dose: 400.0 mg/kg/injection, schedule: Q01DX009 (ip), vehicle: saline 90 % of control | dose: 400.0 mg/kg/injection, schedule: Q04DX003 (ip), vehicle: saline 98 % of control

CC/C=C/C1(C(C)C)C(=O)NC(=O)NC1=O (tested in a mixture with another compound)
inactive: dose: 75.0 mg/kg/injection, schedule: Q01DX001 (ip), vehicle: saline 100 % of control | dose: 150.0 mg/kg/injection, schedule: Q01DX001 (ip), vehicle: saline 94 % of control | dose: 300.0 mg/kg/injection, schedule: Q01DX001 (ip), vehicle: saline 94 % of control

COc1c(C(C)(C)C)cc(/C=C(\NC(=O)c2ccccc2)C(=O)O)cc1C(C)(C)C
inactive: [1] 98 % of control | [2] 92 % of control

O=C(Nc1cc([N+](=O)[O-])ccc1S(=O)(=O)c1ccc([N+](=O)[O-])cc1NC(=O)c1ccccc1)c1ccccc1
inactive: dose: 75.0 mg/kg/injection, schedule: Q04DX003 (ip), vehicle: saline 92 % of control | [3] 93 % of control | dose: 150.0 mg/kg/injection, schedule: Q04DX003 (ip), vehicle: saline 124 % of control | [4] 94 % of control | dose: 300.0 mg/kg/injection, schedule: Q04DX003 (ip), vehicle: saline 92 % of control | [5] 94 % of control

CC(=O)CSc1sc(C(C)=O)c(N)c1C#N
inactive: [6] 91 % of control | [7] 91 % of control | [8] 90 % of control

CCCCC(=O)N1CCCC1
inactive: [9] 96 % of control | [10] 92 % of control | [11] 111 % of control

O=C(C1=C(C(=O)c2ccccc2)C2C=CC1C2)c1ccccc1
inactive: dose: 75.0 mg/kg/injection, schedule: Q04DX003 (ip), vehicle: Klucel (hydroxypropylcellulose) (HPC) 96 % of control | dose: 150.0 mg/kg/injection, schedule: Q04DX003 (ip), vehicle: Klucel (hydroxypropylcellulose) (HPC) 94 % of control | dose: 300.0 mg/kg/injection, schedule: Q04DX003 (ip), vehicle: Klucel (hydroxypropylcellulose) (HPC) 89 % of control

COC(=O)c1cc(=O)[nH]c2c1c(=O)n(C)c(=O)n2C
inactive: [12] 95 % of control | [13] 97 % of control | [14] 90 % of control | dose: 400.0 mg/kg/injection, schedule: Q01DX009 (ip), vehicle: Klucel (hydroxypropylcellulose) (HPC) 97 % of control | [15] 94 % of control

NC(=O)c1[nH]cnc1/N=N/N(CCO)Cc1ccccc1
inactive: dose: 50.0 mg/kg/injection, schedule: Q01DX001 (ip), vehicle: water 98 % of control | dose: 50.0 mg/kg/injection, schedule: Q04DX003 (ip), vehicle: water 105 % of control | dose: 100.0 mg/kg/injection, schedule: Q01DX001 (ip), vehicle: water 96 % of control | [6] 98 % of control | dose: 100.0 mg/kg/injection, schedule: Q04DX003 (ip), vehicle: water 105 % of control | dose: 200.0 mg/kg/injection, schedule: Q01DX001 (ip), vehicle: water 98 % of control | [7] 102 % of control | dose: 200.0 mg/kg/injection, schedule: Q04DX003 (ip), vehicle: water 101 % of control | dose: 400.0 mg/kg/injection, schedule: Q01DX001 (ip), vehicle: water 101 % of control | [8] 95 % of control | dose: 400.0 mg/kg/injection, schedule: Q04DX003 (ip), vehicle: water 97 % of control

O=[N+]([O-])c1ccc2scc3c4ccccc4nc-3c2c1
inactive: dose: 4.37 mg/kg/injection, schedule: Q01DX009 (ip), vehicle: Klucel (hydroxypropylcellulose) (HPC) 95 % of control | dose: 8.75 mg/kg/injection, schedule: Q01DX009 (ip), vehicle: Klucel (hydroxypropylcellulose) (HPC) 101 % of control | dose: 12.5 mg/kg/injection, schedule: Q04DX003 (ip), vehicle: saline 101 % of control | dose: 17.5 mg/kg/injection, schedule: Q01DX009 (ip), vehicle: Klucel (hydroxypropylcellulose) (HPC) 89 % of control | dose: 25.0 mg/kg/injection, schedule: Q04DX003 (ip), vehicle: saline 101 % of control

S=C(c1ccccc1)N(c1ccccc1)C1CCCCC1
inactive: dose: 100.0 mg/kg/injection, schedule: Q04DX003 (ip), vehicle: gum acacia 91 % of control | dose: 200.0 mg/kg/injection, schedule: Q04DX003 (ip), vehicle: gum acacia 88 % of control | dose: 400.0 mg/kg/injection, schedule: Q04DX003 (ip), vehicle: gum acacia 88 % of control

Cc1cc(=O)[nH]c(NCCCC(N)C(=O)O)n1 (stereo not drawn)
inactive: [9] 104 % of control | [10] 101 % of control | [11] 96 % of control

C=C1C(=O)OC2C1CCC(C)=C1C(=O)C=C(C)C12 (stereo not drawn)
inactive: [9] 94 % of control | [10] 97 % of control

O=c1n(-c2ccccc2)c(=O)n(-c2ccccc2)c(=O)n1-c1ccccc1
inactive: [3] 107 % of control | [12] 89 % of control | [4] 102 % of control | [14] 94 % of control | [5] 115 % of control | [15] 104 % of control

COC(=O)C(C)(C)Br
inactive: dose: 100.0 mg/kg/injection, schedule: Q01DX009 (ip), vehicle: saline sonified 94 % of control | dose: 200.0 mg/kg/injection, schedule: Q01DX009 (ip), vehicle: saline sonified 100 % of control | dose: 400.0 mg/kg/injection, schedule: Q01DX009 (ip), vehicle: saline sonified 100 % of control

CCOC(=O)C(=O)Cc1nc2ccccc2[nH]c1=O
inactive: dose: 50.0 mg/kg/injection, schedule: Q01DX009 (ip), vehicle: Klucel (hydroxypropylcellulose) (HPC) 94 % of control | dose: 100.0 mg/kg/injection, schedule: Q01DX009 (ip), vehicle: Klucel (hydroxypropylcellulose) (HPC) 91 % of control | [13] 94 % of control
